Measurements: patent US6632829B2, “Sulfonamides and derivatives thereof that modulate the activity of endothelin” (Texas Biotechnology Corp., priority 1996, dated 2003)

Key:
human ETA receptors = biological target: T1, human ETA receptors (Homo sapiens, UniProt P25101); assay: Endothelin binding inhibition, Binding Test #1: competition with 125I-ET-1 for ETA receptors on TE 671 cell membranes
T1 construct: endogenous in cells; host or cells: TE 671 cells (ATCC HTB 139), membrane preparation
T1 sequence (P25101 21-427): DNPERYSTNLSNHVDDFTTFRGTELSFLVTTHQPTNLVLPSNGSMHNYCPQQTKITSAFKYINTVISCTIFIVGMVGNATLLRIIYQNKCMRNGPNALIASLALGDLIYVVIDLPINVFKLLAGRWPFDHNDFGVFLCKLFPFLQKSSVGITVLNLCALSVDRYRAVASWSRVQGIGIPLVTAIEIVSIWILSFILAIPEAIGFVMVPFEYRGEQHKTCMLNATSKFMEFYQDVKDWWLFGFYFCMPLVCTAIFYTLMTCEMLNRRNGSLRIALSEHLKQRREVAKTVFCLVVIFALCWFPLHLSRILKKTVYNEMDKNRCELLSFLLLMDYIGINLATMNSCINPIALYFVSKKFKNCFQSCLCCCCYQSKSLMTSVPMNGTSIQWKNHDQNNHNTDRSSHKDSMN

human ETB receptor = biological target: T2, human ETB receptor (Homo sapiens, UniProt P24530); assay: Endothelin binding inhibition, Binding Test #2: competition with 125I-ET-1 for ETB receptors on transfected COS7 cell membranes
T2 construct: expressed in transfected cells; host or cells: COS7 cells
T2 sequence (P24530 27-442): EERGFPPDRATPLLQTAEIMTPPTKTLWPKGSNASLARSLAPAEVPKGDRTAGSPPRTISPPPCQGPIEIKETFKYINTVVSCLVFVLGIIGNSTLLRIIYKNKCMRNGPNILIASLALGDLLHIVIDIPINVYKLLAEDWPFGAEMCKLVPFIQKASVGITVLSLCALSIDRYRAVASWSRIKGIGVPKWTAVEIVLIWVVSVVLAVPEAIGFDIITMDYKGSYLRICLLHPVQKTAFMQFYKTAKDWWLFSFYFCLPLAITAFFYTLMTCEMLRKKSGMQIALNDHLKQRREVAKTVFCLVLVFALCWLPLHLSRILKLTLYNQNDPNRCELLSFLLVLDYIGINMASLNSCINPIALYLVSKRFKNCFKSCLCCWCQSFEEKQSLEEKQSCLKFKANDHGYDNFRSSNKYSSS
How it was run: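 Membranes from COS7 cells transfected with human ETB receptor, prepared in HEPES pH 7.4 with aprotinin, MnCl2/DNase treatment at 37° C for 30 min. Test compounds compete with 125I-labeled ET-1 for receptor binding; membrane used at 1 μg/50 μL binding buffer.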

[1] = incubation at 24° C. (values marked †)
[2] = incubation at 4° C. (values without †)

IC50 (human ETA receptors; [1]) | IC50 (human ETB receptor; [1]) | IC50 (human ETA receptors; [2]) | IC50 (human ETB receptor; [2]) | inhibition at 100 µM (human ETB receptor; read-out: ETB % inhibition @ 100 μM, @ 100 μM, incubation at 24° C.) | Compound
1200 nM | 15000 nM |  |  |  | Cc1ccc(OCc2sccc2S(=O)(=O)Nc2onc(C)c2Br)cc1 [N-(4-bromo-3-methyl-5-isoxazolyl)-2-[(4-methylphenoxy)methyl]thiophene-3-sulfonamide]
180 nM | 2970 nM |  |  |  | Cc1ccc(C=CCc2ccsc2S(=O)(=O)Nc2onc(C)c2Br)c(C)c1 [N-(4-bromo-3-methyl-5-isoxazolyl)-3-(2,4-dimethylcinnamyl)thiophene-2-sulfonamide]
45.7 nM | 4680 nM |  |  |  | Cc1cc(C)c(OCc2ccsc2S(=O)(=O)Nc2onc(C)c2Br)c(C)c1 [N-(4-bromo-3-methyl-5-isoxazolyl)-3-[(2,4,6-trimethylphenoxy)methyl]thiophene-2-sulfonamide]
16000 nM | 800 nM |  |  |  | Cc1noc(NS(=O)(=O)c2ccc(-c3cc4ccccc4s3)s2)c1Br [N-(4-bromo-3-methyl-5-isoxazolyl)-5-(benzo[b]thien-2-yl)thiophene-2-sulfonamide]
41 nM | 1300 nM | 14 nM | 477 nM |  | Cc1noc(NS(=O)(=O)c2c(Cc3ccc(N(C)C)cc3)sc3ccccc23)c1Cl [N-(4-chloro-3-methyl-5-isoxazolyl)-2-(4-dimethylaminobenzyl)benzo[b]thiophene-3-sulfonamide]
150 nM | 22000 nM |  |  |  | CCc1oc2ccccc2c1S(=O)(=O)Nc1onc(C)c1Cl [N-(4-chloro-3-methyl-5-isoxazolyl)-2-ethylbenzo[b]furan-3-sulfonamide]
2500 nM | 30000 nM |  |  |  | Cc1noc(NS(=O)(=O)c2ccsc2C(=O)C(O)c2ccc3c(c2)OCO3)c1Cl (stereo not drawn) [N-(4-chloro-3-methyl-5-isoxazolyl)-2-{α-hydroxy-[3,4-(methylenedioxy)phenyl]acetyl}thiophene-3-sulfonamide]
 |  | 188 nM | 16000 nM |  | Cc1noc(NS(=O)(=O)c2ccsc2C(=O)N(C)c2ccccc2)c1Br [N-(4-bromo-3-methyl-5-isoxazolyl)-2-[(methyl)phenylaminocarbonyl]thiophene-3-sulfonamide]
~2000 nM | 2390 nM |  |  |  | COc1ccc2c(S(=O)(=O)Nc3onc(C)c3Cl)c(Cc3ccc4c(c3)OCO4)sc2c1 [N-(4-chloro-3-methyl-5-isoxazolyl)-6-methoxy-2-[3,4-(methylenedioxy)benzyl]benzo[b]thiophene-3-sulfonamide]
270 nM | 7700 nM |  |  |  | Cc1noc(NS(=O)(=O)c2ccsc2Cc2ccc3c(c2)OCO3)c1Br [N-(4-bromo-3-methyl-5-isoxazolyl)-2-[(3,4-methylenedioxy)benzyl]thiophene-3-sulfonamide]
2.7 nM | 17400 nM |  |  |  | Cc1ccc(CC(=O)c2sccc2S(=O)(=O)Nc2onc(C)c2C)c(C)c1 [N-(3,4-dimethyl-5-isoxazolyl)-2-(2,4-dimethylphenylacetyl)thiophene-3-sulfonamide]
2.7 nM | 29200 nM |  |  |  | N-(3,4-dimethyl-5-isoxazolyl)-2-(4-tolylacetylphenyl)thiophene-3-sulfonamide
101 nM | 4300 nM |  |  |  | Cc1ccc(CCc2ccsc2S(=O)(=O)Nc2onc(C)c2Br)c(C)c1 [N-(4-bromo-3-methyl-5-isoxazolyl)-3-(2,4-dimethylphenethyl)thiophene-2-sulfonamide]
2710 nM |  |  |  | 20% | Cc1noc(NS(=O)(=O)c2ccsc2C(=O)Oc2ccccc2)c1Br [N-(4-bromo-3-methyl-5-isoxazolyl)-2-(phenoxycarbonyl)thiophene-3-sulfonamide]
 |  | 167 nM | 16600 nM |  | Cc1noc(NS(=O)(=O)c2c(C)sc3ccccc23)c1C [N-(3,4-dimethyl-5-isoxazolyl)-2-methylbenzo[b]thiophene-3-sulfonamide]
23 nM | 15000 nM |  |  |  | COc1ccc(OC(=O)c2sccc2S(=O)(=O)Nc2onc(C)c2Cl)cc1 [N-(4-chloro-3-methyl-5-isoxazolyl)-2-[(4-methoxyphenoxy)carbonyl]thiophene-3-sulfonamide]

IC50 (human ETA receptors; [1]) | IC50 (human ETB receptor; [1]) | IC50 (human ETA receptors; [2]) | IC50 (human ETB receptor; [2]) | inhibition at 100 µM (human ETB receptor; read-out: ETB % inhibition @ 100 μM, @ 100 μM, incubation at 24° C.) | Compound
3.9 nM | 12200 nM |  |  |  | COc1cc(C#N)c(NC(=O)c2sccc2S(=O)(=O)Nc2onc(C)c2Cl)cc1OC [N-(4-chloro-3-methyl-5-isoxazolyl)-2-[{2-cyano-4,5-dimethoxyphenyl)aminocarbonyl]thiophene-3-sulfonamide]
479 nM | 24500 nM |  |  |  | Cc1cc(C)c(OC(=O)c2sccc2S(=O)(=O)Nc2onc(C)c2Br)c(C)c1 [N-(4-bromo-3-methyl-5-isoxazolyl)-2-[(2,4,6-trimethylphenoxy)carbonyl]thiophene-3-sulfonamide]
 | 8480 nM | 87.3 nM |  |  | CCCc1ccc(-c2ccsc2S(=O)(=O)Nc2onc(C)c2Br)cc1 [N-(4-bromo-3-methyl-5-isoxazolyl)-3-(4-propylphenyl)thiophene-2-sulfonamide]
 | 28300 nM | 218 nM |  |  | Cc1noc(NS(=O)(=O)c2sccc2-c2ccc(C(C)C)cc2)c1Br [N-(4-bromo-3-methyl-5-isoxazolyl)-3-(4-iso-propylphenyl)thiophene-2-sulfonamide]
3.8 nM | 25000 nM |  |  |  | Cc1noc(NS(=O)(=O)c2ccsc2C(=O)Nc2c(CC#N)cc3c(c2CC#N)OCO3)c1Cl [N-(4-chloro-3-methyl-5-isoxazolyl)-2-[2-cyanomethyl-4,5-(methylenedioxy)-6-cyanomethyl]phenylaminocarbonylthiophene-3-sulfonamide]
933 nM | 7700 nM | 214 nM | 5340 nM |  | COc1cccc(NCc2sccc2S(=O)(=O)Nc2onc(C)c2C)c1 [N-(3,4-dimethyl-5-isoxazolyl))-2-[(3-methoxyanilino)methyl]thiophene-3-sulfonamide]
~200 nM | ~1500 nM |  |  |  | CCCc1cc2c(cc1OCc1ccsc1S(=O)(=O)Nc1onc(C)c1Br)OCO2 [N-(4-bromo-3-methyl-5-isoxazolyl)-3-{[2-propyl-4,5-(methylenedioxy)phenoxy]methyl}thiophene-2-sulfonamide]
794 nM | 6490 nM |  |  |  | N-(4-chloro-3-methyl-5-isoxazolyl)-2-[2-methyl-4,5-(methylenedioxy)phenylhydroxyimino]thiophene-3-sulfonamide
11 nM | 61000 nM |  |  |  | COc1cc(NC(=O)c2sccc2S(=O)(=O)Nc2onc(C)c2Cl)c(C(N)=O)cc1OC [N-(4-chloro-3-methyl-5-isoxazolyl)-2-(2-carboxamido-4,5-dimethoxyphenylaminocarbonyl)thiophene-3-sulfonamide]
46.8 nM | 3630 nM |  |  |  | CCCc1ccc(-c2ccsc2S(=O)(=O)Nc2onc(C)c2Br)c(C)c1 [N-(4-bromo-3-methyl-5-isoxazolyl)-3-(2-methyl-4-propylphenyl)thiophene-2-sulfonamide]
1400 nM | 60000 nM |  |  |  | Cc1noc(NS(=O)(=O)c2ccsc2C(=O)Oc2cccc(N(C)C)c2)c1Cl [N-(4-chloro-3-methyl-5-isoxazolyl)-2-[(3-dimethylamino)phenoxycarbonyl]thiophene-3-sulfonamide]
15800 nM | 250 nM | 7100 nM | 359 nM |  | Cc1ccc(-c2ccc(S(=O)(=O)Nc3noc(C)c3Br)s2)cc1 [N-(4-bromo-5-methyl-3-isoxazolyl)-5-(4-methylphenyl)thiophene-2-sulfonamide]
66 nM | 81300 nM |  |  |  | Cc1noc(NS(=O)(=O)c2ccsc2C(=O)Nc2ccc(O)nn2)c1Br [N-(4-bromo-3-methyl-5-isoxazolyl)-2-[(3-hydroxyl-6-pyridazinyl)aminocarbonyl]thiophene-3-sulfonamide]
308 nM | 4480 nM |  |  |  | Cc1ccc(OCc2sccc2S(=O)(=O)Nc2onc(C)c2Br)c(C)c1 [N-(4-bromo-3-methyl-5-isoxazolyl)-2-[(2,4-dimethylphenoxy)methyl]thiophene-3-sulfonamide]
550 nM | 52600 nM |  |  |  | Cc1noc(NS(=O)(=O)c2c(-c3ccc4c(c3)OCO4)sc3ccccc23)c1Cl [N-(4-chloro-3-methyl-5-isoxazolyl)-2-[3,4-(methylenedioxy)phenyl]benzo[b]thiophene-3-sulfonamide]

Compound | IC50 (human ETA receptors; [1]) | IC50 (human ETB receptor; [1]) | IC50 (human ETA receptors; [2]) | IC50 (human ETB receptor; [2]) | inhibition at 100 µM (human ETB receptor; read-out: ETB % inhibition @ 100 μM, @ 100 μM, incubation at 24° C.)
N-(4-chloro-3-methyl-5-isoxazolyl)-2-[β-acetoxy-2-methyl-4,5-(methylenedioxy)styryl]thiophene-3-sulfonamide |  | 3740 nM | 5.44 nM |  | 
CC(=O)OCc1c(C)cc(C)c(NC(=O)c2sccc2S(=O)(=O)Nc2noc(C)c2Cl)c1C [N-(4-chloro-5-methyl-3-isoxazolyl)-2-(3-acetoxymethyl-2,4,6-trimethylphenylaminocarbonyl)thiophene-3-sulfonamide] | 0.51 nM | 19700 nM |  |  | 
